Reference: US10501495B2, “Antimicrobial surface” (The University of Birmingham, priority 2014, dated 2019)
Converted amounts (≈) assume the structure as drawn. Where a SMILES comes first, the peptide text is derived from it. Primed or numbered codes have the meaning given here. Where no end group is shown, it is not given here. Linker = not defined here; FITC′ = not defined here

How the values were obtained:
E. coli = type: cell-based
Description: (§1) The antibacterial activity of various amino acid sequences was tested against S. aureus, P. aeruginosa and E. coli.

P. aeruginosa = type: cell-based
Description: as §1

S. aureus = type: cell-based
Description: as §1

[1] = Binder-surface adherence of FITC-labelled binder peptide, fluorescence microscopy; type: physicochemical; conditions: hydroxyapatite disks and titanium squares, pH 7, room temperature, washed before imaging
Excerpt: This work established that the binder peptides interact with the surfaces

[2] = Release study of FITC peptide from hydroxyapatite disk into PBS (fluorescence); type: physicochemical
Description: A release study was carried out to ascertain the strength of adherence of the DDDDDDD (SEQ ID NO: 15)-Linker-FITC peptide to the hydroxyapatite surface. Disks of hydroxyapatite were incubated in 1 mg/ml peptide solutions for 1 hour and then washed thoroughly with PBS. The disk was then placed into a cuvette and surrounded with PBS solution (2 ml). The fluorescence of the solution around the disk was measured to ascertain the rate of peptide diffusion from the disk into the surrounding solution.

[3] = Further release studies of linker-FITC peptides from surface under different temperatures and pH; type: physicochemical
Description: Further release studies were carried out to ascertain the strength of adherence of the peptides RKLPDA (SEQ ID NO: 12), RKLPDARKLPDA (SEQ ID NO: 13) and EEEEEEE (SEQ ID NO: 14) to the surface under different temperatures and pH. Each peptide comprised a linker-FITC sequence for fluorescence. Surfaces were coated with peptide as described for FIG. 1. The peptide-coated disks were incubated in PBS or in a balanced buffer at a set pH. Aliquots of the solution surrounding the surface were taken out at set time points and the fluorescence of the peptide in the solution monitored to establish the rate of peptide diffusion from the disk into the surrounding solution.

[4] = room temperature, balanced buffer pH 9 (FIG. 5)
[5] = room temperature, balanced pH 7 buffer (FIG. 4)

Molecule: GTCIYQRLNAF [GTCIYQRLNAF]
- Minimum inhibitory concentration (MIC) E. coli (E. coli): 10000 µg/mL
- Minimum inhibitory concentration (MIC) P. aeruginosa (P. aeruginosa): 10000 µg/mL
- Minimum inhibitory concentration (MIC) S. aureus (S. aureus): 10000 µg/mL

Molecule: N=C(N)NCCC[C@H](NC(=O)[C@H](CCCNC(=N)N)NC(=O)[C@H](CCCNC(=N)N)NC(=O)[C@H](CCCNC(=N)N)NC(=O)[C@H](CCCNC(=N)N)NC(=O)[C@@H](N)CCCNC(=N)N)C(=O)O [RRRRRR]
- Minimum inhibitory concentration (MIC) E. coli (E. coli): 2500 µg/mL (≈ 2.62 mM)
- Minimum inhibitory concentration (MIC) P. aeruginosa (P. aeruginosa): 39 µg/mL (≈ 0.0408 mM)
- efficacy against P. aeruginosa (in words) (P. aeruginosa): surprisingly high efficacy
- Minimum inhibitory concentration (MIC) S. aureus (S. aureus): 5000 µg/mL (≈ 5.23 mM)

Molecule: RRIYGRGYIRR [RRIYGRGYIRR]
- Minimum inhibitory concentration (MIC) E. coli (E. coli): 1250 µg/mL
- Minimum inhibitory concentration (MIC) P. aeruginosa (P. aeruginosa): 2500 µg/mL
- Minimum inhibitory concentration (MIC) S. aureus (S. aureus): 2500 µg/mL

Molecule: PACIGERRY [PACIGERRY]
- Minimum inhibitory concentration (MIC) E. coli (E. coli): 10000 µg/mL
- Minimum inhibitory concentration (MIC) P. aeruginosa (P. aeruginosa): 10000 µg/mL
- Minimum inhibitory concentration (MIC) S. aureus (S. aureus): 10000 µg/mL

Molecule: RLYLRIGRR [RLYLRIGRR]
- Minimum inhibitory concentration (MIC) E. coli (E. coli): 250 µg/mL
- Minimum inhibitory concentration (MIC) P. aeruginosa (P. aeruginosa): 2000 µg/mL
- Minimum inhibitory concentration (MIC) S. aureus (S. aureus): 500 µg/mL

Molecule: RRIYGRGYIRRRKLPDA [RRIYGRGYIRRRKLPDA]
- Minimum inhibitory concentration (MIC) E. coli (E. coli): 5000 µg/mL
- Minimum inhibitory concentration (MIC) P. aeruginosa (P. aeruginosa): 10000 µg/mL
- Minimum inhibitory concentration (MIC) S. aureus (S. aureus): 10000 µg/mL

Molecule: RRIYGRGYIRREEEEEEEE [RRIYGRGYIRREEEEEEEE]
- Minimum inhibitory concentration (MIC) E. coli (E. coli): 5000 µg/mL
- Minimum inhibitory concentration (MIC) P. aeruginosa (P. aeruginosa): 10000 µg/mL
- Minimum inhibitory concentration (MIC) S. aureus (S. aureus): 5000 µg/mL

Molecule: EEEEEEEE
- Minimum inhibitory concentration (MIC) E. coli (E. coli): none
- Minimum inhibitory concentration (MIC) P. aeruginosa (P. aeruginosa): none
- Minimum inhibitory concentration (MIC) S. aureus (S. aureus): none

Molecule: DDDDDDD (DDDDDDD-{Linker-FITC′}; not fully specified; reading uncertain)
- adherence of FITC-labelled binder peptide to surfaces [1]: adhered well to the surfaces
- rate of release from hydroxyapatite into surrounding solution ([2]; disk incubated in 1 mg/ml peptide 1 hour, PBS 2 ml): fairly slow rate
- time up to which increases in fluorescence (release) were observed ([2]; hydroxyapatite disk in PBS): up to 10 hours

Molecule: EEEEEEE (also: linker-FITC, site not given here)
- release of peptide from surface ([3]; 4° C., pH 7 PBS (FIG. 3)): released
- release of peptide from surface ([3]; 37° C., pH 7 PBS (FIG. 2)): released
- release of peptide from surface [3, 4]: released
- release of peptide from surface [3, 5]: released
- release in comparison to RKLPDA and RKLPDARKLPDA ([3]; room temperature, pH 4 (FIG. 6)): Increased release

Molecule: RKLPDA (also: linker-FITC, site not given here)
- Minimum inhibitory concentration (MIC) E. coli (E. coli): none
- Minimum inhibitory concentration (MIC) P. aeruginosa (P. aeruginosa): none
- Minimum inhibitory concentration (MIC) S. aureus (S. aureus): none
- release of peptide from surface [3, 4]: not released
- release of peptide from surface [3, 5]: not released

Molecule: RKLPDARKLPDA (also: linker-FITC, site not given here)
- release of peptide from surface [3, 4]: not released
- release of peptide from surface [3, 5]: not released

Molecule: CC(C)C[C@H](NC(=O)CNC(=O)[C@H](CS)NC(=O)[C@@H](NC(=O)CN)[C@@H](C)O)C(=O)N1CCC[C@H]1C(=O)NCC(=O)N[C@H](C(=O)N[C@@H](CCCCN)C(=O)N[C@@H](CS)C(=O)N[C@@H](CS)C(=O)O)[C@@H](C)O [GTCGLPGTKCC] (H-GTCGLPGTKCC-OH; N-terminus and C-terminus assumed)
- Minimum inhibitory concentration (MIC) E. coli (E. coli): 10000 µg/mL (≈ 9.62 mM)
- Minimum inhibitory concentration (MIC) P. aeruginosa (P. aeruginosa): 5000 µg/mL (≈ 4.81 mM)
- Minimum inhibitory concentration (MIC) S. aureus (S. aureus): 5000 µg/mL (≈ 4.81 mM)
